One assay deals with hROMK (hKir1.1) (Homo sapiens (Human), UniProt P48048). Description: Thallium Flux Assay (ROMK channel functional thallium flux, FLIPR-Tetra). The class given is cell-based. How it is done:
Another ROMK functional assay makes use of the ability of thallium to permeate through open ROMK channels and increase the fluorescence of a dye previously loaded into the cells. Under control conditions, cells loaded with dye and exposed to thallium-containing medium display a time-dependent increase in fluorescence, the rate of which depends on number of functional channels. When cells are incubated in the presence of a channel inhibitor, the increase in fluorescence is attenuated in a concentration-dependent manner, and IC50 values of inhibition by compounds can be accurately determined. This assay has been established with cell lines expressing either human, or rat ROMK channels, and operates in 384-well format.
HEK293 cells stably expressing hROMK (hKir1.1) were grown at 37° C. in a 10% CO2 humidified incubator in complete growth media: Dulbecco's Modified Eagle Medium supplemented with non-essential amino acids, Penicillin/Streptomycin/Glutamine, G418 and FBS. At >80% confluency, the media was aspirated from the flask and the sample was rinsed with 10 ml Calcium/Magnesium-free PBS. […] To dislodge the cell, the side of the flask was gently banged with a hand. The cells were triturated completely and then transferred to 25 ml complete media. The sample was then centrifuged at 1,500 rpm for 6 minutes, followed by resuspension in complete growth media and then cell concentration was determined. […] Under ideal growth conditions and appropriate tissue culture practices, this cell line is stable for 40-45 passages.
FluxOR Kit Components (Invitrogen F10017)
• FluxOR™ Reagent (Component A) • FluxOR™ Assay Buffer (Component B)—10× Concentrate • PowerLoad™ Concentrate (Component C)—100× Concentrate • Probenecid (Component D)—Lyophilized sample is kept at −20° C. Water soluble, 100× after solubilization in 1 ml water. […] Store at 4° C. • Thallium sulfate (Tl2SO4) Concentrate (Component G)—50 mM in water. Store at 4° C. • DMSO (dimethyl sulfoxide, Component H)—1 ml (100%) Reagent Preparation— FluxOR Working Solutions • 1000× FluxOR™ Reagent: Reconstitute a vial of component A in 100 μl DMSO; Mix well; Store 10 μl aliquots at −20° C. • 1× FluxOR™ Assay Buffer: Dilute Component B 10-fold with water; Adjust pH to 7.4 with Hepes/NaOH; Filter and store at 4° C. • Probenecid/Assay Buffer: 100 ml of 1× FluxOR™ Assay Buffer; 1 ml of reconstituted component D; Store at 4° C. • Loading Buffer (per microplate): 10 μl 1000× FluxOR™ Reagent; 100 μl component C; 10 ml Probenecid/Assay Buffer • Compound Buffer (per microplate): 20 ml Probenecid/Assay Buffer; 0.3 mM ouabain (10 mM ouabain in water can be stored in amber bottle/aluminum foil at room temperature);
Test compound • 1× FluxOR™ Chloride-Free Buffer: Prepare 1× working solution in water. Can be stored at room temperature • Stimulant Buffer (prepared at 5× final concentration in 1× FluxOR™ Chloride-Free Buffer): 7.5 mM Thallium sulfate and 0.75 mM Potassium sulfate (to give a final assay concentration of 3 mM Thallium/0.3 mM Potassium). Store at 4° C. when not in use. If kept sterile, this solution is good for months. Assay Protocol—
The ROMK channel functional thallium flux assay is performed in 384 wells, using the FLIPR-Tetra instrument. HEK-hKir1.1 cells are seeded in Poly-D-Lysine microplates and kept in a 37° C.-10% CO2 incubator overnight. On the day of the experiment, the growth media is replaced with the FluxOR™ reagent loading buffer and incubated, protected from light, at ambient temperature (23-25° C.) for 90 min. The loading buffer is replaced with assay buffer±test compound followed by 30 min incubation at ambient temperature, where the Thallium/Potassium stimulant is added to the microplate.
• 1. Seed HEK-hKir1.1 cells (50 μl at 20,000 cells/well) in 384-well PDL coated Microplates • 2. Allow cells to adhere overnight in humidified 37° C./10% CO2 incubator • 3. Completely remove cell growth media from microplate and replace with 25 μl loading buffer • 4.

The next assay concerns the target Kir1.1 (ROMK1) (Homo sapiens (Human), UniProt P48048). Description: Electrophysiology Assay (whole cell voltage clamp, IonWorks Quattro). It is filed as cell-based. Conditions: read-out: EP Assay IC50. The text has this: Several assays may be used to measure functional inhibition of the ROMK channel by compounds of the instant invention. One assay that can be used is an electrophysiology assay that measures the electrical current that is generated as potassium permeates through the channel.
Block of Kir1.1 (ROMK1) currents was examined by whole cell voltage clamp (Hamill et. al. Pfluegers Archives 391:85-100 (1981)) using the IonWorks® Quattro automated electrophysiology platform (Molecular Devices, Sunnyvale, Calif.). Chinese hamster ovary cells stably expressing Kir1.1 channels were maintained in T-75 flasks in cell culture media in a humidified 10% CO2 incubator at 37° C. Prior to an experiment, Kir1.1 expression was induced by overnight incubation with 1 mM sodium butyrate. On the day of the experiment, cells were dissociated with 2.5 ml of Versene™ (Invitrogen 15040-066) for approximately 6 minutes at 37° C. and suspended in 10 ml of bath solution containing (in mM): 150 NaCl, 10 KCl, 2.7 CaCl2, 0.5 MgCl2, 5 HEPES, pH 7.4. After centrifugation, the cell pellet was resuspended in approximately 4.0 ml of bath solution and placed in the IonWorks® instrument. The intracellular solution consisted of (in mM): 80 K gluconate, 40 KCl, 20 KF, 3.2 MgCl2, 3 EGTA, 5 Hepes, pH 7.4. Electrical access to the cytoplasm was achieved by perforation in 0.13 mg/ml amphotericin B for 4 minutes. Amphotericin B (Sigma A-4888) was prepared as a 40 mg/ml solution in DMSO.
Voltage protocols and current recordings were performed using the IonWorks® HT software/hardware system. Currents were sampled at 1 kHz. No correction for liquid junction potentials was used. The test pulse, consisting of a 100 ms step to 0 mV from a holding potential of −70 mV, followed by a 100 ms voltage ramp from −70 mV to +70 mV, was applied before and after a 6 minutes compound incubation period. Test compounds were prepared by diluting DMSO stock solutions into the bath solution at 3× the final concentration and placed in the instrument in 96-well polypropylene plates. Current amplitudes were measured using the IonWorks® software. To assess compound potency, the fractional block during the voltage step to 0 mV was calculated in Microsoft® Excel (Microsoft, Redmond, Calif.), and dose-response curves were fitted with Igor Pro 4.0 (WaveMetrics, Lake Oswego, Oreg.).
(In general: The patch-clamp technique gives a direct electrical read-out from membranes.)

Setting [1] is: HEK293 cells stably expressing hROMK (hKir1.1), read-out: Thallium Flux Assay IC50.
[2] abbreviates: Chinese hamster ovary cells stably expressing Kir1.1, block during voltage step to 0 mV.

For 13 compounds, IC50 results are on record in patent US9139585B2 (Merck Sharp & Dohme Corp., priority 2011, dated 2015).

Read-outs that look alike come from different tables or passages of the source.

hROMK (hKir1.1), sequence (P48048 whole entry): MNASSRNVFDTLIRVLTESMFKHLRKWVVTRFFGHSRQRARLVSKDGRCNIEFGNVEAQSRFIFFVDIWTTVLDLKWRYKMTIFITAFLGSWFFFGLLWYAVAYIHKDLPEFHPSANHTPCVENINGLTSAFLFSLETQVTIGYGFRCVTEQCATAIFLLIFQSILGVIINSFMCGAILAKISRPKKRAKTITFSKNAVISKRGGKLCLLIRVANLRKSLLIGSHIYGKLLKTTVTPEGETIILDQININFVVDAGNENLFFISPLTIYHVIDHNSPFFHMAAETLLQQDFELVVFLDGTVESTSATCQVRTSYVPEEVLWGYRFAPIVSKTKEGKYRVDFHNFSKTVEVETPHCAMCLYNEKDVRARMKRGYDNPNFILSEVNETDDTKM
Kir1.1 (ROMK1), sequence (P48048 whole entry, species assumed): as the sequence (P48048 whole entry) above

What is called IC50 is the concentration that inhibits the measured activity by half. Consider `Cc1nc(C(O)CN2C3CCC2C2CCC3N2C[C@H](O)c2ccc3c(c2C)COC3=O)ccc1C#N` (stereo partly drawn) [Example 7, 6-(1-Hydroxy-2-{10-[(2R)-2-hydroxy-2-(4-methyl-1-oxo-1,3-dihydro-2-benzofuran-5-yl)ethyl]-9,10-diazatricyclo[4.2.1.1^2,5]dec-9-yl}ethyl)-2-methylpyridine-3-carbonitrile], for which the IC50 at hROMK (hKir1.1) (setting [1]) stood at 115 nM; on Kir1.1 (ROMK1) (setting [2]), 45 nM.

Consider `Cc1c([C@@H](O)CN2CCN(C[C@@H](O)c3ccc4c(c3)CCS4(=O)=O)CC2)ccc2c1COC2=O` (single isomer, unassigned) [Example 43A], for which the IC50 on hROMK (hKir1.1) (setting [1]) was found to be 52.3 nM; at Kir1.1 (ROMK1) (setting [2]), 95 nM.

For the compound `Cc1c([C@@H](O)CN2C3COCC2CN(CCc2ccc4c(c2)C[C@H](C)OC4=O)C3)ccc2c1COC2=O` [Example 22, (S)-6-(2-(9-((R)-2-Hydroxy-2-(4-methyl-1-oxo-1,3-dihydroisobenzofuran-5-yl)ethyl)-3-oxa-7,9-diazabicyclo[3.3.1]nonan-7-yl)ethyl)-3-methylisochroman-1-one], the IC50 against hROMK (hKir1.1) (Thallium Flux Assay IC50) was 42.7 nM; at Kir1.1 (ROMK1), 32 nM.

Regarding `Cc1c([C@@H](O)CN2CC3COCC(C2)N3C[C@H](O)c2ccc3c(c2C)COC3=O)ccc2c1COC2=O` [Example 18, 5,5′-(1R,1′R)-2,2′-(3-Oxa-7,9-diazabicyclo[3.3.1]nonane-7,9-diyl)bis(1-hydroxyethane-2,1-diyl)bis(4-methylisobenzofuran-1(3H)-one)], the IC50 stood at 30.8 nM on hROMK (hKir1.1) (setting [1]) and 30 nM on Kir1.1 (ROMK1) (setting [2]).

Consider `Cc1c([C@@H](O)CN2C[C@H]3CC[C@@H](C2)N3S(=O)(=O)c2ccc(-n3cnnn3)cc2)ccc2c1COC2=O` [Example 16], for which the IC50 turned out to be 397 nM at hROMK (hKir1.1) (Thallium Flux Assay IC50) and 54 nM at Kir1.1 (ROMK1).

Consider `Cc1c([C@@H](O)CN2CCN(c3ccc(C#N)cn3)CC2)ccc2c1COC2=O` [Example 11, (R)-6-(4-(2-Hydroxy-2-(4-methyl-1-oxo-1,3-dihydroisobenzofuran-5-yl)ethyl)piperazin-1-yl)nicotinonitrile], for which the IC50 on hROMK (hKir1.1) (setting [1]) stood at 743 nM; on Kir1.1 (ROMK1) (setting [2]) it was 54 nM.

For `Cc1nc(-n2cnnn2)ccc1[C@@H](O)CN1CCN(C[C@H](O)c2ccc3c(c2C)COC3=O)CC1` (single isomer, unassigned) [Example 36B], the IC50 on hROMK (hKir1.1) (setting [1]) worked out at 171 nM; at Kir1.1 (ROMK1) (setting [2]) it was 24 nM.

With `COc1cc(C(O)CN2CCN(CC(O)c3ccc4c(c3)C[C@H](C)OC4=O)CC2)ncc1C#N` (single isomer, unassigned) [Example 44A], the figures for the IC50 at hROMK (hKir1.1) (setting [1]) and on Kir1.1 (ROMK1) (setting [2]) were 704 nM and 151 nM, respectively.

With `Cc1nc(-n2cnnn2)ccc1[C@@H](O)CN1CCN(C[C@H](O)c2ccc3c(c2C)COC3=O)CC1` (single isomer, unassigned) [Example 36A], the values for the IC50 on hROMK (hKir1.1) (setting [1]) and on Kir1.1 (ROMK1) (setting [2]) were 441 nM and 55 nM, respectively.

For `CCc1c(C(O)CN2CCN(CCc3ccc4c(c3)CCOC4=O)CC2)ccc2c1COC2=O` (centres unmarked) [Example 32, 6-(2-(4-(2-(4-Ethyl-1-oxo-1,3-dihydroisobenzofuran-5-yl)-2-hydroxyethyl)piperazin-1-yl)ethyl)isochroman-1-one], the IC50 at hROMK (hKir1.1) (setting [1]) came to 71 nM; on Kir1.1 (ROMK1) (setting [2]), 46 nM.

Consider `Cc1c([C@@H](O)CN2CCN(C[C@H](O)c3ccc4c(c3)C[C@@H](C)OC4=O)CC2)ccc2c1COC2=O` (single isomer, unassigned) [Example 38B], for which the IC50 at hROMK (hKir1.1) (setting [1]) came to 33.4 nM; on Kir1.1 (ROMK1) (setting [2]), 29 nM.

As for `Cc1c([C@@H](O)CN2CCN(C[C@H](O)c3ccc4c(c3)C[C@H](C)OC4=O)CC2)ccc2c1COC2=O` (single isomer, unassigned) [Example 37B], the IC50 at hROMK (hKir1.1) (setting [1]) is 48.5 nM; on Kir1.1 (ROMK1) (setting [2]) it was 31.5 nM.

As for `Cc1c([C@@H](O)CN2[C@@H]3CC[C@H]2CN(C(=O)c2ccc(-n4cnnn4)nc2)C3)ccc2c1COC2=O` [Example 12, 5-((R)-2-((1R,5S)-3-(6-(1H-Tetrazol-1-yl)nicotinoyl)-3,8-diazabicyclo[3.2.1]octan-8-yl)-1-hydroxyethyl)-4-methylisobenzofuran-1 (3H)-one], the IC50 amounted to 342 nM at hROMK (hKir1.1) (setting [1]) and 140 nM on Kir1.1 (ROMK1) (setting [2]).
